Test results published in PubChem BioAssay (NCI).
“And” between values parts separate entries of the source, which are not always exact repeats. Identical values can stand only once.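 Tested at 5 concentrations; 48 h exposure; 96-well plates; endpoints linearly interpolated, else capped at highest concentration. GI50 = concentration required for 50% inhibition of growth. TGI: total growth inhibition.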

Legend:
Experiment in all cases: NCI-60 cell line screen, 48 h
SNB-75 CNS = test system: SNB-75 CNS
TK-10 renal = test system: TK-10 renal
MDA-MB-435 = test system: MDA-MB-435
OVCAR-4 ovarian = test system: OVCAR-4 ovarian
MDA-MB-231 breast = test system: MDA-MB-231 breast
CCRF-CEM leukemia = test system: CCRF-CEM leukemia
SNB-19 CNS = test system: SNB-19 CNS
MCF7 breast = test system: MCF7 breast
KM12 colon = test system: KM12 colon
NCI-H23 lung = test system: NCI-H23 lung

Row | Structure (SMILES) | GI50 (SNB-75 CNS) | TGI (SNB-75 CNS) | GI50 (TK-10 renal) | GI50 (MDA-MB-435) | TGI (MDA-MB-435) | GI50 (OVCAR-4 ovarian) | TGI (OVCAR-4 ovarian) | GI50 (MDA-MB-231 breast) | TGI (MDA-MB-231 breast) | GI50 (CCRF-CEM leukemia) | TGI (CCRF-CEM leukemia) | GI50 (SNB-19 CNS) | TGI (SNB-19 CNS) | GI50 (MCF7 breast) | TGI (MCF7 breast) | GI50 (KM12 colon) | TGI (KM12 colon) | GI50 (NCI-H23 lung) | TGI (TK-10 renal) | TGI (NCI-H23 lung)
1 | CCC(C)[C@H](NC(=O)Nc1cc(C(F)(F)F)cc(C(F)(F)F)c1)C(=O)N[C@@H](Cc1cn(C)cn1)C(=O)OC (some centres undefined) | 0.924 µM | 1.82 µM | 3.65 µM | 0.825 µM | 1.85 µM | 0.599 µM | 1.12 µM | 0.619 µM | 1.12 µM | 0.0146 µM | 1.45 µM | 0.672 µM | 1.52 µM | 0.513 µM | 1.08 µM | 0.788 µM | 1.83 µM | 6.15 µM |  | 
2 | O=C(Nc1cccc(O)c1)c1ccc(NC2=C(Cl)C(=O)N(Cc3ccc(Cl)cc3Cl)C2=O)cc1 | 2.77 µM | 11.2 µM | 2.07 µM | 1.89 µM | 3.63 µM | 5.43 µM | 12.7 µM | 1.85 µM | 4.05 µM | 0.244 µM | 0.95 µM | 2.69 µM | 7.68 µM | 1.83 µM | 4.29 µM | 1.84 µM | 3.66 µM | 19.6 µM | 4.82 µM | 36.1 µM
3 | CC1(C)CNc2cc(NC(=O)c3cccnc3NCc3ccncc3)ccc21 | 1.87 µM | > 100 µM | 43.1 µM | 26.1 µM | > 100 µM | 18 µM | > 100 µM | 29.2 µM | > 100 µM | 23.7 µM | > 100 µM | 48.4 µM | > 100 µM | 23 µM | > 100 µM | 38 µM | > 100 µM | 27.6 µM | > 100 µM | > 100 µM
4 | Cc1ccc(/C=N/Nc2nc(Nc3ccccc3)nc(-n3nc(C)cc3C)n2)cc1 | 10.9 µM | > 100 µM | 3.52 µM | 4.84 µM | 37.6 µM | 3.06 µM | 25.5 µM | 6.44 µM | > 100 µM | 3.72 µM | > 100 µM |  |  | 2.89 µM | 10.6 µM | 3.28 µM | 13.1 µM | 5.41 µM | 22.9 µM | 24.3 µM
5 | CCOC(=O)c1cc2c(cc1Cl)SC(=Nc1ccccc1)N(S(=O)(=O)c1ccc(Cl)cc1)S2(=O)=O | 38.2 µM | > 100 µM | 16.8 µM | 12.9 µM | 28.4 µM | 31.5 µM | > 100 µM | 13.2 µM | 33.7 µM | 2.57 µM | 7.4 µM | 20.2 µM | > 100 µM | 4.38 µM | 15.9 µM | 15.1 µM | 30.4 µM | 13.5 µM | 32.3 µM | 29.8 µM
6 | O=C(/C=C\c1ccc([N+](=O)[O-])cc1)c1ccccc(=O)c1O |  | 4.75 µM |  |  | 7.55 µM |  | 18.1 µM |  | 17.1 µM |  | 0.532 µM |  | 16.8 µM |  | 2.64 µM |  | 2.87 µM |  | 8.91 µM | 12.4 µM
7 | Cc1cc2c(cc1Cl)S/C(=C/C(=O)O)C(Nc1ccc3ncsc3c1)=NS2(=O)=O | > 100 µM | > 100 µM | 17.9 µM | > 33.5 µM | > 53.4 µM | > 34.3 µM | > 54.5 µM | 20.9 µM | > 63.7 µM | 7.22 µM | > 53.5 µM | > 34.3 µM | > 56.2 µM | 8.75 µM | > 92.5 µM | 27.5 µM | > 48 µM | > 14.3 µM | 51.1 µM | > 22.5 µM
8 | CC1=C(c2ccccc2)C(O)(c2ccccc2)C(C)C1=O (centres undefined) | 10.7 µM | 42.8 µM | 30.1 µM | 2.13 µM | 5.47 µM | 24.3 µM | > 100 µM | 14 µM | > 100 µM | 23.7 µM | > 100 µM | 35.5 µM | > 100 µM | 13 µM | > 100 µM | 7.52 µM | > 100 µM | 10.1 µM | > 100 µM | 46.4 µM
9 | CC(C)(C)C1CCC2c3c([nH]c4ccccc34)C3C(=O)N(c4ccc(Cl)cc4)C(=O)C3C2C1 (centres undefined) | > 100 µM | > 100 µM | > 100 µM | > 100 µM | > 100 µM | 59.5 µM and > 10 µM | > 100 µM | 56.1 µM and > 10 µM | > 100 µM |  | 47.3 µM and > 10 µM | > 100 µM | > 100 µM |  | 99.6 µM | 44.3 µM and > 10 µM | > 100 µM | 58.4 µM and > 10 µM | > 100 µM | > 100 µM
10 | Nc1nc([Se])c2ncn(C3OC(CO)C(O)C3O)c2n1 (centres undefined) | > 100 µM | > 100 µM | 7.55 µM | 15.1 µM | > 100 µM | 27.4 µM | > 100 µM | 2.81 µM | 69.8 µM | 2.28 µM | > 100 µM | > 100 µM | > 100 µM | 4.09 µM | > 100 µM | 10.2 µM | 54.9 µM | 5.05 µM | > 100 µM | > 100 µM
11 | CCOCCCn1c2c(c3c(O)cccc31)C(=O)c1ccccc1-2 | 20.5 µM | 50.3 µM | 23.4 µM | 18.4 µM | 46.5 µM | 21.3 µM | 69.3 µM | 12.8 µM | 35.3 µM | 25.1 µM | 88.6 µM | 26.7 µM | > 100 µM | 32.6 µM | > 100 µM | 16.6 µM | 39.4 µM | 19.1 µM | 76.2 µM | 53.2 µM
12 | CCC(C)Nc1ccc(N)cc1 (centres undefined) | 4.25 µM | 20.3 µM | 5.72 µM | 4.11 µM | 15.3 µM | 3.18 µM | 38.6 µM | 2.91 µM | 12.8 µM | 3.33 µM | 17.9 µM | 8.42 µM | 52.5 µM | 3.41 µM | 12.4 µM | 4.09 µM | 13.5 µM | 2.89 µM | 25.3 µM | 8.89 µM
13 | CNC(=O)c1c(NC(=O)c2ccc(C(C)(C)C)cc2)sc2c1CCC(=O)C2 | 0.343 µM | 1.44 µM | 0.374 µM | 0.335 µM | 1.42 µM | 0.195 µM | 0.991 µM | 0.3 µM | 1.13 µM | 0.0886 µM | > 20.1 µM | 0.321 µM | 1.39 µM | 0.264 µM | 1.33 µM | 0.313 µM | 1.34 µM | 0.266 µM | 1.97 µM | 1.24 µM
